Source: ChEMBL document CHEMBL3885881, “DrugMatrix”

Species: Rattus norvegicus
Assay: DrugMatrix - Regimen: Daily Repeat
Assay type: toxicity, organism-based, Sprague-Dawley
Design: regimen Daily Repeat, gender Male, age 6-8 weeks
Settings: in vivo, po, route oral GAVAGE, vehicle .5 % CMC; for ABSOLUTE BASOPHIL / ABSOLUTE EOSINOPHIL / ABSOLUTE LYMPHOCYTE / ABSOLUTE MONOCYTE / ABSOLUTE SEGMENTED NEUTROPHIL / BASOPHIL / EOSINOPHIL / ERYTHROCYTE COUNT / HEMATOCRIT / HEMOGLOBIN / LEUKOCYTE COUNT / LYMPHOCYTE / MEAN CORPUSCULAR HEMOGLOBIN / MEAN CORPUSCULAR HEMOGLOBIN CONCENTRATION / MEAN CORPUSCULAR VOLUME / MONOCYTE / NEUTROPHIL / NUCLEATED RED BLOOD CELLS / PLATELET COUNT: tissue Blood; for ALANINE AMINOTRANSFERASE / ALBUMIN / ALKALINE PHOSPHATASE / ASPARTATE AMINOTRANSFERASE / BLOOD UREA NITROGEN / CARBON DIOXIDE / CHLORIDE / CHOLESTEROL / CREATINE PHOSPHOKINASE / CREATININE / GLUCOSE / LACTATE DEHYDROGENASE / LIPASE / PHOSPHORUS / POTASSIUM / SODIUM / TOTAL BILIRUBIN / TOTAL PROTEIN / URIC ACID: tissue Plasma
[1] = 0 mg/kg, 72 h, dose level Control, time 3 day
[2] = 0 mg/kg, 120 h, dose level Control, time 5 day
[3] = 1 mg/kg, 72 h, dose level Low, time 3 day

Compound: CCOc1nc2cccc(C(=O)O)c2n1Cc1ccc(-c2ccccc2-c2nnn[nH]2)cc1
- ABSOLUTE BASOPHIL [1]: 0 CELLS/uL
- ABSOLUTE EOSINOPHIL [1]: 35.67 CELLS/uL
- ABSOLUTE LYMPHOCYTE [1]: 9125.17 CELLS/uL
- ABSOLUTE MONOCYTE [1]: 50.17 CELLS/uL
- ABSOLUTE SEGMENTED NEUTROPHIL [1]: 722.33 CELLS/uL
- BASOPHIL [1]: 0%
- EOSINOPHIL [1]: 0.33%
- ERYTHROCYTE COUNT [1]: 5.35 x10E6/uL
- HEMATOCRIT [1]: 33.58%
- HEMOGLOBIN [1]: 13.35 G/DL
- LEUKOCYTE COUNT [1]: 9.93 x10E3/uL
- LYMPHOCYTE [1]: 91.67%
- MEAN CORPUSCULAR HEMOGLOBIN [1]: 25 pg
- MEAN CORPUSCULAR HEMOGLOBIN CONCENTRATION [1]: 39.8 G/DL
- MEAN CORPUSCULAR VOLUME [1]: 62.77 fL
- MONOCYTE [1]: 0.67%
- NEUTROPHIL [1]: 7.33%
- NUCLEATED RED BLOOD CELLS [1]: 0 /100WBC
- PLATELET COUNT [1]: 866.17 x10E3/uL
- ALANINE AMINOTRANSFERASE [1]: 57.17 u/L
- ALBUMIN [1]: 4.22 G/DL
- ALKALINE PHOSPHATASE [1]: 391 u/L
- ASPARTATE AMINOTRANSFERASE [1]: 95.17 u/L
- BLOOD UREA NITROGEN [1]: 13.67 mg/dL
- CARBON DIOXIDE [1]: 30 mmol/L
- CHLORIDE [1]: 102.5 MEQ/L
- CHOLESTEROL [1]: 72 mg/dL
- CREATINE PHOSPHOKINASE [1]: 485.67 u/L
- CREATININE [1]: 0.27 mg/dL
- GLUCOSE [1]: 152 mg/dL
- LACTATE DEHYDROGENASE [1]: 372.67 u/L
- LIPASE [1]: 9.83 u/L
- PHOSPHORUS [1]: 12.47 mg/dL
- POTASSIUM [1]: 6.81 MEQ/L
- SODIUM [1]: 144.1 MEQ/L
- TOTAL BILIRUBIN [1]: 0.23 mg/dL
- TOTAL PROTEIN [1]: 5.93 G/DL
- URIC ACID [1]: 1.9 mg/dL
- ABSOLUTE BASOPHIL [2]: 0 CELLS/uL
- ABSOLUTE EOSINOPHIL [2]: 67.33 CELLS/uL
- ABSOLUTE LYMPHOCYTE [2]: 11419.17 CELLS/uL
- ABSOLUTE MONOCYTE [2]: 203.17 CELLS/uL
- ABSOLUTE SEGMENTED NEUTROPHIL [2]: 1327 CELLS/uL
- BASOPHIL [2]: 0%
- EOSINOPHIL [2]: 0.5%
- ERYTHROCYTE COUNT [2]: 5.65 x10E6/uL
- HEMATOCRIT [2]: 35.3%
- HEMOGLOBIN [2]: 13.98 G/DL
- LEUKOCYTE COUNT [2]: 13.02 x10E3/uL
- LYMPHOCYTE [2]: 88%
- MEAN CORPUSCULAR HEMOGLOBIN [2]: 24.78 pg
- MEAN CORPUSCULAR HEMOGLOBIN CONCENTRATION [2]: 39.63 G/DL
- MEAN CORPUSCULAR VOLUME [2]: 62.58 fL
- MONOCYTE [2]: 1.33%
- NEUTROPHIL [2]: 10.17%
- NUCLEATED RED BLOOD CELLS [2]: 0 /100WBC
- PLATELET COUNT [2]: 1213.83 x10E3/uL
- ALANINE AMINOTRANSFERASE [2]: 49.67 u/L
- ALBUMIN [2]: 4.28 G/DL
- ALKALINE PHOSPHATASE [2]: 362.33 u/L
- ASPARTATE AMINOTRANSFERASE [2]: 99 u/L
- BLOOD UREA NITROGEN [2]: 20.67 mg/dL
- CARBON DIOXIDE [2]: 26.33 mmol/L
- CHLORIDE [2]: 102 MEQ/L
- CHOLESTEROL [2]: 63.83 mg/dL
- CREATINE PHOSPHOKINASE [2]: 481.83 u/L
- CREATININE [2]: 0.21 mg/dL
- GLUCOSE [2]: 158 mg/dL
- LACTATE DEHYDROGENASE [2]: 656.33 u/L
- LIPASE [2]: 10.67 u/L
- PHOSPHORUS [2]: 12.27 mg/dL
- POTASSIUM [2]: 6.17 MEQ/L
- SODIUM [2]: 143.35 MEQ/L
- TOTAL BILIRUBIN [2]: 0.17 mg/dL
- TOTAL PROTEIN [2]: 6.13 G/DL
- URIC ACID [2]: 1.48 mg/dL
- ABSOLUTE BASOPHIL [3]: 0 CELLS/uL
- ABSOLUTE EOSINOPHIL [3]: 0 CELLS/uL
- ABSOLUTE LYMPHOCYTE [3]: 10188.33 CELLS/uL
- ABSOLUTE MONOCYTE [3]: 75.33 CELLS/uL
- ABSOLUTE SEGMENTED NEUTROPHIL [3]: 1069.67 CELLS/uL
- BASOPHIL [3]: 0%
- EOSINOPHIL [3]: 0%
- ERYTHROCYTE COUNT [3]: 5.49 x10E6/uL
- HEMATOCRIT [3]: 34.4%
- HEMOGLOBIN [3]: 13.73 G/DL
- LEUKOCYTE COUNT [3]: 11.33 x10E3/uL
- LYMPHOCYTE [3]: 89.67%
- MEAN CORPUSCULAR HEMOGLOBIN [3]: 25.03 pg
- MEAN CORPUSCULAR HEMOGLOBIN CONCENTRATION [3]: 39.93 G/DL
- MEAN CORPUSCULAR VOLUME [3]: 62.7 fL
- MONOCYTE [3]: 0.67%
- NEUTROPHIL [3]: 9.67%
- NUCLEATED RED BLOOD CELLS [3]: 0 /100WBC
- PLATELET COUNT [3]: 1183.67 x10E3/uL
- ALANINE AMINOTRANSFERASE [3]: 53.67 u/L
- ALBUMIN [3]: 4.23 G/DL
- ALKALINE PHOSPHATASE [3]: 410.67 u/L
- ASPARTATE AMINOTRANSFERASE [3]: 90 u/L
- BLOOD UREA NITROGEN [3]: 16.67 mg/dL
- CARBON DIOXIDE [3]: 29 mmol/L
- CHLORIDE [3]: 102.67 MEQ/L
- CHOLESTEROL [3]: 81 mg/dL
- CREATINE PHOSPHOKINASE [3]: 371 u/L
- CREATININE [3]: 0.23 mg/dL
- GLUCOSE [3]: 155.67 mg/dL
- LACTATE DEHYDROGENASE [3]: 328 u/L
- LIPASE [3]: 8 u/L
- PHOSPHORUS [3]: 12.13 mg/dL
- POTASSIUM [3]: 6.17 MEQ/L
- SODIUM [3]: 143.6 MEQ/L
- TOTAL BILIRUBIN [3]: 0.2 mg/dL
- TOTAL PROTEIN [3]: 5.9 G/DL
- URIC ACID [3]: 1.6 mg/dL
